Molecular target: T1, glutathione peroxidase 4 (hGPX4-C) (Homo sapiens, UniProt P36969, U73C)
T1 construct: gene GPX4; human cytosolic GPX4 (c-GPX4), his-tagged, expressed in E. coli M15
Assay: activation of purified GPX4 in a glutathione reductase/NADPH coupled assay; Tm shift about […]°C; D23A mutant loses activation; CETSA in HEK293T cells
Assay type: biochemical
Settings: read-out: % (maximum activation)

T1 sequence (P36969 other isoform, or with tags, fused parts or gaps U73C): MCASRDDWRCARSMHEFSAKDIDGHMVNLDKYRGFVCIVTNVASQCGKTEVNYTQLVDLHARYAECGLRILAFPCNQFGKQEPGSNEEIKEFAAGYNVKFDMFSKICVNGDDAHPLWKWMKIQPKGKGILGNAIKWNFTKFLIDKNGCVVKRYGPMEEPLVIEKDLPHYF

## NC1=NC2(O)C(=O)c3ccccc3C2(O)N1 (stereo not shown) [compound 102, PKUMDL-LC-102]
  Emax: 236%

Source: PMC6178849, “Activation of Glutathione Peroxidase 4 as a Novel Anti-inflammatory Strategy” (Frontiers in Pharmacology, 2018)
